Measurements from patent US20060258670A1, “New phenylpyridylpiperazine compounds” (priority 2005, published 2006).

What was measured:
[1] = biological target: T1, type H3 central histamine receptors (Mus musculus, UniProt P58406); assay: Cerebral levels of N^t-methylhistamine in the NMRI mouse (ex vivo, RIA); details: one hour after treatment, versus carrier
T1 construct: from tissue; host or cells: brain of living NMRI mice
Description: The purpose of this study, which was carried out in accordance with the method of Taylor et al. (Biochem. Pharm., 1992, 44, 1261-1267), is to evaluate the ex vivo activity of the compounds of the present invention as antagonists of type H3 central histamine receptors. […] An increase in the cerebral concentrations of N^t-methylhistamine indicates an increase in the turn-over of histamine by blockage of the type H3 central histamine receptors.
NMRI mice (18-20 g) are treated intraperitoneally or orally with compounds of the present invention or with their carrier (20 ml/kg). One hour after the pharmacological treatment, the animals are sacrificed, and their brains are removed, frozen in liquid nitrogen, weighed and homogenised in 0.1N HClO4 at 4° C. The homogenised products are centrifuged (15 000 g, 17 min, 4° C.). The supernatants are recovered and divided into aliquots. The aliquots are frozen in, liquid nitrogen and stored at −80° C. until analysis.
Determination of the cerebral levels of N^t-methylhistamine is carried out by radioimmunological assay (RIA) using an assay kit. The tissue levels of N^t-methylhistamine are expressed in […] of fresh brain. The comparison of the cerebral levels of N^t-methylhistamine between animals treated with the carrier (controls) and animals treated with compounds of the present invention is carried out by single-factor variance analysis followed, if necessary, by a complementary analysis (Dunnett's test).

[2] = tested on: Adult male Wistar rats; assay: Electroencephalographic recordings on freely moving rats; format: in vivo; details: Wistar rat, EEG
Description: Adult male Wistar rats were chronically implanted with electrodes placed over the frontal and panetal cortex. Cortical electroencephalogram (EEG) was recorded from rats placed inside cages in a sound attenuating-room. Compounds and vehicle were administered in a random order at 10:00 AM on the same days with a minimum of 3 days between each administration, allowing each rat to serve as its own control. Absolute power of slow wave delta band activity (1-4 Hz), that predominates during slow wave sleep and disappears during wakefulness and rapid eyes movement sleep, was averaged over successive periods of 30 min. Over 30 min, low and high values of slow wave delta power are signs of arousal and sleep, respectively.

T1 sequence (P58406 whole entry): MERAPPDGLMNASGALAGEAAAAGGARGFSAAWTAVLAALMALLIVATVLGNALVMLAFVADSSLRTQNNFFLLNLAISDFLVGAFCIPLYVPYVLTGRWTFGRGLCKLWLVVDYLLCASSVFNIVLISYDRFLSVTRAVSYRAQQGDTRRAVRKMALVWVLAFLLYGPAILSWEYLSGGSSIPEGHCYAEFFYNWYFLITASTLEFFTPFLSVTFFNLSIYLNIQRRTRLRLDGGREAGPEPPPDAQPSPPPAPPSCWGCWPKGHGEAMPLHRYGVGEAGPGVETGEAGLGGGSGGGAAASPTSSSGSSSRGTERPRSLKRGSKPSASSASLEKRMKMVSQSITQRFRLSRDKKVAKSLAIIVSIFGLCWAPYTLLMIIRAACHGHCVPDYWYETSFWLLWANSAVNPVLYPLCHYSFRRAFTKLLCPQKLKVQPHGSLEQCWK

| Structure (SMILES) | increase of endogenous cerebral concentrations of N^t-methylhistamine ([1]; 10 mg/kg PO) [%] | duration of significant reduction of slow wave delta power (cortical activation and arousal) ([2]; 0.3 mg/kg) [min] | sleep latency: first slow wave sleep episode after administration ([2]; 3 mg/kg, control group 45±5 minutes) [min] | increase of endogenous cerebral concentrations of N^t-methylhistamine ([1]; 3 mg/kg PO) [%] |
| --- | --- | --- | --- | --- |
| CC(C)N1CCN(c2ccc(-c3ccc(S(=O)(=O)N4CCOCC4)cc3)cn2)CC1.Cl.Cl [Example 1] | 105 | 150 | 73 ± 5 | – |
| CCN1CCN(c2ccc(-c3ccc(S(=O)(=O)N4CCCCC4)cc3)cn2)CC1.Cl.Cl [Example 5] | 197 | – | – | – |
| CC(C)N1CCN(c2ccc(-c3ccc(S(=O)(=O)N4CCN(C)CC4)cc3)cn2)CC1.Cl.Cl.Cl [Example 9, 1-Isopropyl-4-(5-{4-[(4-methylpiperazin-1-yl)sulphonyl]phenyl}pyridin-2-yl)piperazine trihydrochloride] | 121 | – | – | – |
| CC(C)CN1CCN(c2ccc(-c3ccc(S(=O)(=O)N4CCOCC4)cc3)cn2)CC1.Cl.Cl [Example 21, 4-({4-[6-(4-Isobutylpiperazin-1-yl)pyridin-3-yl]phenyl}sulphonyl)-morpholine dihydrochloride] | – | – | – | 168 |
